The record followed here is US12071411B2, “Inhibitors of HIF-2α and methods of use thereof” (ARCUS BIOSCIENCES, INC., priority 2021, dated 2024).

Assay [1] concerns the target T1, HIF-2α (Homo sapiens, UniProt Q99814). Briefly: HIF-2α Luciferase Reporter Assay (serum), HRE-luciferase 786-0 cells in 100% human serum. Type of assay: cell-based. The settings on record: for IC50: 100% human serum, 786-0 reporter cells, overnight incubation, read-out: Serum Potency; for Serum Shift (approximate): ratio of IC50 in 100% serum to IC50 in serum free conditions. The protocol: (§1) Generation of HIF-2α Luciferase 786-0 Cell Line:
(§2) Stable cell lines were generated by transducing 786-0 cells (ATCC, CRL-1932) with Cignal Lenti HIF Luc Reporter lentivirus (CLS-007L, Qiagen) according to the manufacturer's guidelines. In brief, 0.3×10^6 786-0 cells were transduced with lentivirus at a multiplicity of infection (MOI) of 25 for 24 hours. After transduction, cells were replenished with fresh RPMI 1640 Medium (Cat. No. 11875085, Thermo Fisher) supplemented with 10% FBS (Cat. No. A3160502, Gibco), 2 mM GlutaMAX™ (Cat. No. 35050-061, Invitrogen) and 100 units of penicillin and 100 μg of streptomycin/mL (Cat. No 15070063, Thermo Fisher) for another 24 hours. Antibiotic selection was performed in cell media containing 4 μg/mL of puromycin. After 7 days of antibiotic selection, stable pools of surviving cells were expanded and used in a luciferase reporter assay.
HIF-2α Luciferase Reporter Assay (Serum):
An HRE-luciferase stable reporter 786-0 cell line was maintained in active culture using RPMI 1640 (GIBCO) media supplemented with 1% penicillin-streptomycin, 1% GlutaMAX™, 10% FBS-One Shot (GIBCO) and 4 ug/ml of puromycin (Invitrogen). On the day of the assay, cells were harvested using StemPro™ Accutase™ cell dissociation reagent (GIBCO) and resuspended at 1.5 million cells per milliliter in Opti-MEM™ (GIBCO). 20 ul/well of the resuspended cells were dispensed into a 384 white tissue culture-treated microplate (Corning) and allowed to incubate at 37° C., 5% CO2 for 3 hours. Compounds were prepared by dispensing 0.8 ul of compound in 100% DMSO into a Greiner plate containing 40 ul/well of 100% human serum (Bioreclamation IVT). After 3 hours, media was removed via centrifugation at 500 RPM for 30 seconds and 30 ul/well of compound diluted in human serum was added. The plate was incubated overnight at 37° C., 5% CO2. The following day, ONE-Glo™ was prepared per vendors instructions. The cell plate was removed from the incubator and the human serum was removed from the plate using centrifugation at 500 RPM for 30 seconds. Following the removal of human serum, 40 ul/well of room temperature Opti-MEM™ was added to the plate and allowed to equilibrate to room temperature for 2 hours. 40 ul/well of ONE-Glo™ reagent was added and allowed to incubate for 10 minutes before reading the luminescence signal on the Envision (PerkinElmer). Data was analyzed using 4-parameter logistic equation to generate IC50.
In general terms: A reporter such as luciferase makes a cellular process visible.

Assay [2] has as its target T1, HIF-2α. The experiment in a line: HIF-2α Luciferase Reporter Assay (serum free) in HIF-Luc-786-0 cells. It is filed as cell-based. The settings on record: Opti-MEM, 786-0 reporter cells, 20 hours incubation. How it is done: as §1, §2
HIF-2α Luciferase Reporter Assay (Serum Free):
On day one, 20 uL of HIF-Luc-786-0 cells in Opti-MEM™ (Cat. No. 31985088, Thermo Fisher) were seeded into each well of a 384 well white opaque plate (Corning 3570) and incubated at 37° C. and 5% CO2. Twenty microliters of 2× test compounds in Opti-MEM™ were added to cells after 4 hours of incubation. Final assay conditions comprised 20,000 cells per well in 1% DMSO with test compound concentrations ranging from 50 uM to 0 uM. After 20 hours incubation at 37° C. and 5% CO2, luciferase activity was determined using ONE-Glo™ Luciferase Assay Reagent (E6110, Promega) following the manufacture's recommended procedure. Briefly, 40 uL of ONE-Glo™ luciferase reagents were added to each well and luciferase signals were measured using an Envision 2102 Multilabel Reader. Percentage maximum activity in each test well was calculated based on DMSO (maximum activity) and no cell control wells (baseline activity). The IC50 values of the test compounds were determined from compound dose response curves fitted using a standard four parameter fit equation.

T1 sequence (Q99814 whole entry): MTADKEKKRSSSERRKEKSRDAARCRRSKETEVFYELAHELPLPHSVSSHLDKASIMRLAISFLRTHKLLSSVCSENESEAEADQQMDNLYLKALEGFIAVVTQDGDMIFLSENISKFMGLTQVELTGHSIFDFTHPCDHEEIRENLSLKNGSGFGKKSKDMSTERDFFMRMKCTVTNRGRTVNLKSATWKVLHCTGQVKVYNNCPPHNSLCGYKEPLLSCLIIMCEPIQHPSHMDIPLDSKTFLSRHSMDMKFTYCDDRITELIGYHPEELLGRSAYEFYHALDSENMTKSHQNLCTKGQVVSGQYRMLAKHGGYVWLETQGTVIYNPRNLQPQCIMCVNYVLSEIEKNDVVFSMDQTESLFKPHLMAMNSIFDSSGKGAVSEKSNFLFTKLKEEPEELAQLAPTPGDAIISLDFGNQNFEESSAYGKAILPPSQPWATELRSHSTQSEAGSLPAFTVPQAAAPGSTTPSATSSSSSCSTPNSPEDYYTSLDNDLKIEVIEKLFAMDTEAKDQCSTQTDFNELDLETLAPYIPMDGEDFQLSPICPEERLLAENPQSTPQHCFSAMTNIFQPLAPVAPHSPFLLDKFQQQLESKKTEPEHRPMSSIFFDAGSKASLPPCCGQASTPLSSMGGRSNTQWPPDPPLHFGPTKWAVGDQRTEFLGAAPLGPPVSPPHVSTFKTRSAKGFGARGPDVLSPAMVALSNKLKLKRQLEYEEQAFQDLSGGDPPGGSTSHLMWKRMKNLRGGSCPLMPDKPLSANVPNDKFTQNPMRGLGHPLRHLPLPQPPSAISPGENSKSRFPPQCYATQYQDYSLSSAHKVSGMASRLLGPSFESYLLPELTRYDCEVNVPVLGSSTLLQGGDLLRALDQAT

For the molecule `O[C@H]1c2c(C(F)(F)F)nn([C@H]3CCO[C@@H](C(F)(F)F)C3)c2[C@@H](F)[C@H]1F` (single isomer, unassigned) [150/151 DIAST-1], the IC50 was more than 1000 nM at HIF-2α [1] and 100 to 1000 nM at HIF-2α [2]. Further, the “Serum Shift (approximate)” value at HIF-2α [1] was 5.
For the molecule `O[C@H]1c2c(C(F)(F)F)nn(CCCC(F)(F)F)c2[C@H](F)[C@H]1F` [Example 139, (4S,5S,6S)-5,6-difluoro-1-(4,4,4-trifluorobutyl)-3-(trifluoromethyl)-5,6-dihydro-4H-cyclopenta[c]pyrazol-4-ol], at HIF-2α [1], the IC50 was more than 1000 nM and the “Serum Shift (approximate)” value is on record as 6. Besides, the IC50 against HIF-2α [2] is less than 100 nM.
The matching figures for `O[C@H]1c2c(C(F)(F)F)nn([C@H]3C[C@]4(CC4(F)F)C3)c2CC1(F)F` [Example 65, (4S)-5,5-difluoro-1-[(3s,5s)-1,1-difluorospiro[2.3]hexan-5-yl]-3-(trifluoromethyl)-4,6-dihydrocyclopenta[c]pyrazol-4-ol]: more than 1000 nM, 11 and 100 to 1000 nM.
For `O[C@H]1c2c(C(F)(F)F)nn([C@@H]3COCC(F)(F)C3)c2CC1(F)F` [Example 87, (4S)-1-[(3S)-5,5-difluorooxan-3-yl]-5,5-difluoro-3-(trifluoromethyl)-1H,4H,5H,6H-cyclopenta[c]pyrazol-4-ol] the same measures were more than 1000 nM, 7 and 100 to 1000 nM.
For `O[C@H]1c2c(C(F)(F)F)nn(C3CCC(F)(F)CC3)c2CC1(F)F` [Example 53, (4S)-1-(4,4-difluorocyclohexyl)-5,5-difluoro-3-(trifluoromethyl)-4,6-dihydrocyclopenta[c]pyrazol-4-ol] the same measures were 100 to 1000 nM, 7 and less than 100 nM.
On to `O[C@H]1c2c(C(F)(F)F)nn(CCCOC(F)(F)F)c2CC[C@H]1F` [Example 120, (4S,5R)-5-fluoro-1-[3-(trifluoromethoxy)propyl]-3-(trifluoromethyl)-4,5,6,7-tetrahydroindazol-4-ol], for which the IC50 is 100 to 1000 nM on HIF-2α [1] and less than 100 nM on HIF-2α [2]. Besides, the “Serum Shift (approximate)” value on HIF-2α [1] is listed as 4.
The matching figures for `O[C@H]1c2c(C(F)(F)F)nn(C[C@H](F)C3CC3)c2CCC1(F)F` (single isomer, unassigned) [26/27 DIAST-2]: more than 1000 nM, 100 to 1000 nM and 10.
Take `O[C@H]1c2c(C(F)(F)F)nn(CCCC(F)(F)F)c2CC[C@@H]1F` [Example 52, (4S,5S)-5-fluoro-1-(4,4,4-trifluorobutyl)-3-(trifluoromethyl)-4,5,6,7-tetrahydroindazol-4-ol]: on HIF-2α [1], the IC50 was more than 1000 nM and the “Serum Shift (approximate)” value is 7. Also, the IC50 on HIF-2α [2] was 100 to 1000 nM.
With `O[C@H]1c2c(C(F)(F)F)nn(C3CCO[C@H](C(F)(F)F)C3)c2CC1(F)F` (single isomer, unassigned) [94/95 DIAST-2], on HIF-2α [1], the IC50 was more than 1000 nM and the “Serum Shift (approximate)” value was 23. Further, the IC50 on HIF-2α [2] was less than 100 nM.
For `C[C@H](OC(F)F)[C@H]1C[C@H](n2nc(C(F)(F)F)c3c2CC(F)(F)[C@H]3O)C1` [Example 106, (4S)-1-[3-[(1S)-1-(difluoromethoxy)ethyl]cyclobutyl]-5,5-difluoro-3-(trifluoromethyl)-4,6-dihydrocyclopenta[c]pyrazol-4-ol] the same measures were 100 to 1000 nM, 1 and 100 to 1000 nM.
Turning to `O[C@H]1c2c(C(F)(F)F)nn([C@H]3C[C@@H](F)[C@@H](F)[C@@H](F)C3)c2CC1(F)F` (mixture of isomers) [Example 88, (4S)-5,5-difluoro-1-[(3R,5S)-3,4,5-trifluorocyclohexyl]-3-(trifluoromethyl)-4,6-dihydrocyclopenta[c]pyrazol-4-ol], the IC50 on HIF-2α [1] was 100 to 1000 nM; against HIF-2α [2], less than 100 nM. The “Serum Shift (approximate)” value at HIF-2α [1] is given as 6.
Regarding `O[C@H]1c2c(C(F)(F)F)nn(CCCC(F)(F)F)c2CC[C@H]1F` [Example 51, (4S,5R)-5-fluoro-1-(4,4,4-trifluorobutyl)-3-(trifluoromethyl)-4,5,6,7-tetrahydroindazol-4-ol], on HIF-2α [1], the IC50 was in the range of 100 to 1000 nM and the “Serum Shift (approximate)” value was found to be 3. This molecule also yielded an IC50 at HIF-2α [2] of 100 to 1000 nM.
Regarding `O[C@H]1c2c(C(F)(F)F)nn(C3CC4(C3)CC(F)(F)C4)c2C[C@H]1F` [Example 67, (4S,5R)-1-{6,6-difluorospiro[3.3]heptan-2-yl}-5-fluoro-3-(trifluoromethyl)-4,6-dihydrocyclopenta[c]pyrazol-4-ol], at HIF-2α [1], the IC50 was 100 to 1000 nM and the “Serum Shift (approximate)” value was found to be 7. On HIF-2α [2], this molecule displayed an IC50 of 100 to 1000 nM.
As for `O[C@H]1c2c(C(F)(F)F)nn([C@H]3C[C@H](COC(F)F)C3)c2CC1(F)F` [Example 102, (4S)-1-[3-(difluoromethoxymethyl)cyclobutyl]-5,5-difluoro-3-(trifluoromethyl)-4,6-dihydrocyclopenta[c]pyrazol-4-ol], the IC50 on HIF-2α [1] is more than 1000 nM; at HIF-2α [2] it was 100 to 1000 nM. In addition, the “Serum Shift (approximate)” value at HIF-2α [1] is reported as 17.
Regarding `C[C@H](C#N)CCn1nc(C(F)(F)F)c2c1CCC(F)(F)[C@H]2O` [Example 100, (2S)-4-[(4S)-5,5-difluoro-4-hydroxy-3-(trifluoromethyl)-6,7-dihydro-4H-indazol-1-yl]-2-methylbutanenitrile], the IC50 on HIF-2α [1] is more than 1000 nM; against HIF-2α [2], 100 to 1000 nM. The “Serum Shift (approximate)” value on HIF-2α [1] was 4.
Turning to `O[C@H]1c2c(C(F)(F)F)nn(-c3ccc(Cl)cc3)c2CC1(F)F` [Example 116, (4S)-1-(4-chlorophenyl)-5,5-difluoro-3-(trifluoromethyl)-4,6-dihydrocyclopenta[c]pyrazol-4-ol], the IC50 at HIF-2α [1] was more than 1000 nM; against HIF-2α [2] it was less than 100 nM. Moreover, the “Serum Shift (approximate)” value at HIF-2α [1] is 73.
As for `CC(CCn1nc(C(F)(F)F)c2c1CCC(F)(F)[C@H]2O)OC(F)(F)F` (stereo partly drawn) [Example 14, (4S)-5,5-difluoro-1-[3-(trifluoromethoxy)butyl]-3-(trifluoromethyl)-6,7-dihydro-4H-indazol-4-ol], at HIF-2α [1], the IC50 was less than 100 nM and the “Serum Shift (approximate)” value amounted to 6. For the same molecule, the IC50 against HIF-2α [2] was less than 100 nM.
As to `O[C@H]1c2c(C(F)(F)F)nn(CCCOC(F)(F)F)c2[C@H](F)CC1(F)F` (single isomer, unassigned) [129/130 DIAST-2], at HIF-2α [1], the IC50 was more than 1000 nM and the “Serum Shift (approximate)” value came to 17. The IC50 at HIF-2α [2] was in the range of 100 to 1000 nM.
Take `O[C@H]1c2c(C(F)(F)F)nn([C@H]3CC[C@@H](F)[C@@H](F)C3)c2CC1(F)F` (racemic) [91 DIAST-2, (4S)-1-[(rel-1S,3S,4R)-3,4-difluorocyclohexyl]-5,5-difluoro-3-(trifluoromethyl)-4,6-dihydrocyclopenta[c]pyrazol-4-ol]: at HIF-2α [1], the IC50 was more than 1000 nM and the “Serum Shift (approximate)” value worked out at 9. The same molecule displayed an IC50 on HIF-2α [2] of less than 100 nM.
The matching figures for `O[C@H]1c2c(C(F)(F)F)nn([C@@H]3CC[C@@H](F)[C@@H](F)C3)c2[C@@H](F)[C@H]1F` (single isomer, unassigned) [141/142 DIAST-1]: 100 to 1000 nM, 4 and 100 to 1000 nM.
For `O[C@H]1c2c(C(F)(F)F)nn(C3CC4(C3)CC(F)(F)C4)c2CC1(F)F` [Example 66, (4S)-1-{6,6-difluorospiro[3.3]heptan-2-yl}-5,5-difluoro-3-(trifluoromethyl)-4,6-dihydrocyclopenta[c]pyrazol-4-ol] the same measures were 100 to 1000 nM, 6 and less than 100 nM.
